Measurements taken from patent US20230338316A1, “ABBAPOLINS AS INHIBITORS AND DEGRADERS OF POLO-LIKE KINASES” (UNIVERSITY OF SOUTH CAROLINA, priority 2022, published 2023).

Columns and labels:
[1] = molecular target: T1, PLK1 PBD (367-603) (Homo sapiens, UniProt P53350); experiment: Fluorescence polarization assay, PLK1 PBD; format: binding; conditions: fluorescence polarization; read-out: PLK1 PBD IC50
T1 construct: PLK1 PBD (367-603) and PLK3 PBD (335-646) proteins were obtained from BPS Biosciences Inc; purchased BPS Biosciences Inc. (San Diego, CA)
T1 sequence (P53350 367-603): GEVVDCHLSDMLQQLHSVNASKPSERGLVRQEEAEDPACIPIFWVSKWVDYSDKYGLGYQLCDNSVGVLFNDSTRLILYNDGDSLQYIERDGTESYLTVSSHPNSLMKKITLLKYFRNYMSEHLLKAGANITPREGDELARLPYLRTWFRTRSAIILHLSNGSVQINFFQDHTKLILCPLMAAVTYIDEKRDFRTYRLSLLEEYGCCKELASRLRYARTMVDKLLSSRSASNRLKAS
Experimental: (§1) Materials were dissolved in DMSO (10 mM) and diluted from 10 nM to 600 μM (maximum of 6% DMSO tolerance in the assay). PLK1 PBD (367-603) and PLK3 PBD (335-646) proteins were obtained from BPS Biosciences Inc. (San Diego, CA); 17 ng PLK1 and 156 ng PLK3 were used per reaction. The fluorescein-tracer phospho-peptides (MAGPMQS[pT]PLNGAKK (SEQ ID NO: 1) for PLK1, and GPLATS[pT]PKNG (SEQ ID NO: 2) for PLK3) were used at a final concentration of 10 nM. Incubation was carried out at room temperature for 45 minutes. Fluorescence was measured using a DTX 880 plate reader and Multimode Analysis software (Beckman Coulter, Brea, CA). The polarization values in millipolarization (mP) units were measured at an excitation wavelength of 488 nm and an emission wavelength of 535 nm. Each data point was performed in triplicate for every experiment, and experiments were performed at least three times. An IC50 value for each compound was calculated from linear regression analysis of the plots.

[2] = molecular target: T2, PLK3 PBD (335-646) (Homo sapiens, UniProt Q9H4B4); experiment: Fluorescence polarization assay, PLK3 PBD; format: binding
T2 construct: PLK1 PBD (367-603) and PLK3 PBD (335-646) proteins were obtained from BPS Biosciences Inc; purchased BPS Biosciences Inc. (San Diego, CA)
T2 sequence (Q9H4B4 335-646): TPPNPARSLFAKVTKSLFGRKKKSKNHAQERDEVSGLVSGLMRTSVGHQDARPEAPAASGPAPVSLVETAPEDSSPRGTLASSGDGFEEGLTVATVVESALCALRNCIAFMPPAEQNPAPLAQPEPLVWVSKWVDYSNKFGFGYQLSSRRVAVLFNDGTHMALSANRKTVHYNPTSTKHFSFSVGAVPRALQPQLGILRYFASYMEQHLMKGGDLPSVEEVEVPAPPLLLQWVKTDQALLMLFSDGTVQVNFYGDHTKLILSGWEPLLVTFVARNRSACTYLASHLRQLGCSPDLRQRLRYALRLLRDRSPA
Experimental: as §1

[3] = tested on: PC3 prostate cancer cells; experiment: MTT cell viability assay, PC3; format: cell-based; conditions: for IC50: 72 h, MTT
Experimental: PC3 prostate cancer cells were maintained in DMEM (Invitrogen™, Carlsebad, CA) supplemented with 10% FBS or Corning® Nu-serum™(BD™ Biosciences, Franklin Lakes, NJ) and 1% penicillin/streptomycin (Invitrogen™) in a humidified incubator and 5% CO2 at 37° C.
Exponentially growing cells were plated in 96-well dishes. Dose response curves were used to treat cells for 72 hours with inhibitors. Following the three-day treatment, cell viability was measured using the MTT (3-(4,5-dimethylthiazol-2-yl)-2,5-diphenyltetrazolium bromide) colorimetric assay. Cells were incubated for 3 hours with MTT allowing viable cells to metabolize the tetrazolium dye to a purple colored solution. Absorbance measurements (595 nm) were quantified using a DTX 880 plate reader and IC50 values were generated for FLIPs.

[4] = molecular target: T3, PLK1 (Homo sapiens, UniProt P53350); experiment: PLK1 degradation in HeLa cells; format: cell-based; set-up: endogenous in cells; conditions: HeLa cell line, 24, 48 and 72 hours
T3 sequence (P53350 whole entry): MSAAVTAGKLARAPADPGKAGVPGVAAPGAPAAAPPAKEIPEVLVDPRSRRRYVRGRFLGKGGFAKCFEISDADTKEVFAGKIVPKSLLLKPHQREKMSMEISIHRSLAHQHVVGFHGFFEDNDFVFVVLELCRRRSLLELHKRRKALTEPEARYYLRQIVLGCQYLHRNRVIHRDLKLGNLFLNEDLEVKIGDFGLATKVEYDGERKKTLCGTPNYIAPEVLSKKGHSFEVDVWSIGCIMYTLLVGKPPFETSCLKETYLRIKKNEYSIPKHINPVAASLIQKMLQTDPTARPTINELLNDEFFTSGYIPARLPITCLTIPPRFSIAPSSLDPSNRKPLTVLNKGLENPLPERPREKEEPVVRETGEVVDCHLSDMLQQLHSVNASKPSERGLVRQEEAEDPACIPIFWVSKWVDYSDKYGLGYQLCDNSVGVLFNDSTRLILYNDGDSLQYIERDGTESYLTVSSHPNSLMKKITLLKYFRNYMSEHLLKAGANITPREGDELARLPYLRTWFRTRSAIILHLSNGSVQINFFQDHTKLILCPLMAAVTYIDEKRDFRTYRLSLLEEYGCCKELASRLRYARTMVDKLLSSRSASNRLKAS
Experimental: (§2) For example, PC3 cells were treated with varying dosages of abbapolin 6369, and percent of PLK1 degradation was measured at 24 hours (FIGS. 8A-8B). HeLa cells were treated with 25 μM abbapolin 6369, and time points shown in the assay were 24 hours, 48 hours, and 72 hours (FIGS. 9A-9B). PC3 cells were treated with varying dosages of abbapolin 6329, and percent of PLK1 degradation was measured at 24 hours (FIGS. […]). HeLa cells were treated with varying dosages of abbapolin 6329, and time points shown in the assay were 24 hours, 48 hours, and 72 hours (FIGS. 11A-11B).

[5] = molecular target: T3, PLK1; experiment: PLK1 degradation in PC3 cells; format: cell-based; set-up: endogenous in cells; host or cells: PC3 prostate cancer cells; conditions: PC3 cell line, 24 hours
Experimental: as §2

[6] = tested on: HOP-92; experiment: Single dose cell viability assay, HOP-92; format: cell-based; conditions: HOP-92 (NSCLC), single dose 10 μM
Experimental: Lead abbapolin compounds were tested in multiple cancer cell lines, including non-small cell lung cancer (NSCLC) cells, melanoma cells, colon cancer cells, central nervous system (CNS) cancer cells, prostate cancer cells, renal cancer cells, and breast cancer cells. Each of these cancer cells lines were sensitive to the lead abbapolin compounds in a cell viability assay, including 6184 (Table 3), 6277 (Table 4), 6279 (Table 5), 6355 (Table 6), 6359 (Table 7), 6369 (Table 8), and 6421 (Table 9).

[7] = molecular target: T3, PLK1; experiment: Cellular thermal shift assay (CETSA); format: cell-based; set-up: endogenous in cells; host or cells: PC3 prostate cancer cells; conditions: intracellular PLK1
Experimental: Cellular thermal shift assay (CETSA) was performed with PC3 cells cultured in RPMI medium supplemented with 10% FBS. For an initial determination of the melting profile of PLK1 AND PLK3, cells dispensed into 96-well PCR plates in the above medium (6000 cells/well in 50 μL) were subjected to temperature gradient (38-60° C.) for 10 min. […] Centrifugation was performed at 14000 rpm to sediment the denatured protein content. Supernatant was collected and subjected to SDS-PAGE, and immunodetection was performed using anti-PLK1 and anti-PLK3 antibodies. PLK1 and PLK3 bands were quantified on a LI-COR C-Digit Blot Scanner, and Tagg and Tagg values were calculated for both proteins. In subsequent experiments, cells were treated at increasing doses (3.0, 1.0, 0.3, 0.1, 0.03 μM) of inhibitors together with DMSO control, for 2 h. Cells were then subjected to heat shock at Tagg for 10 min, and unstable protein was removed by centrifugation step. Following immuno-blotting, bands of stable PLK1 and PLK3 were quantified, normalized to loading control and plotted using GraphPad Prism software. EC50 values for inhibitors were calculated. […] The EC50 of the peptides were determined from the curve fit of the dose response.

Row | SMILES | IC50 [1] [µM] | IC50 [3] [µM] | other results
1 | CCCCCCCCc1ccc(C(=O)Nc2ccc(C(F)(F)F)cc2C(=O)O)cc1 [compound 6165] | 23.5 ± 4.9 | 14.2 ± 2 | IC50 [2]: 37.6 ± 5.7 µM
2 | Cc1ccc(NC(=O)c2ccc(OCCCCCCCCCCCNC(=O)CCCC(=O)Nc3cccc4c3C(=O)N(C3CCC(=O)NC3=O)C4=O)cc2)c(C(=O)O)c1 (stereo not drawn) [compound 6329] |  |  | PLK1 degradation [4]: degradation of PLK1; PLK1 degradation [5]: degradation of PLK1
3 | CCCCCCCCc1ccc(C(=O)Nc2cccc(P(=O)(O)O)c2)cc1 [compound 6287] | 80.8 |  | PC3 % inhi. ([3]; at 100 μM): 50% inhi. at
4 | CCCCCCCCc1ccc(C(=O)Nc2ccccc2CP(=O)(O)O)cc1 [compound 6184] | 95.3 | 9.2 | Cells Remaining (%) [6]: 43.86%
5 | CC[C@@H]1C(=O)N(C)c2cnc(Nc3ccc(C(=O)N[C@H]4CC[C@H](N5CCN(CC6CC6)CC5)CC4)cc3OC)nc2N1C(C)C [volasertib, reference compound] |  |  | PLK1 thermal stability by CETSA [7]: decreased the stability of PLK1
6 | CCCCCCCCc1cccc(C(=O)Nc2ccc(C)cc2C(=O)O)c1 [compound 6281] | 19.5 |  | 
7 | Cc1ccc(NC(=O)c2ccc(N)cc2)c(C(=O)O)c1 [compound 6153] | > 600 | > 120 | IC50 [2]: > 600 µM
8 | CCCCCCCCc1ccc(C(=O)Nc2ccc(C)cc2C(=O)O)cc1C [compound 6282] | 21 |  | 
9 | CCCCCCCCN(C)c1ccc(C(=O)Nc2cc(C)ccc2C(=O)O)cc1 [compound 6171] | > 600 | 27.3 | 
